Results as given in patent publication US6869957B1, “Non-peptide tachykinin receptor antagonists” (Eli Lilly and Company, priority 1993, dated 2005).

Columns and labels:
[1] = molecular target: T1, human NK-2 receptor (Homo sapiens, UniProt P21452); experiment: NK-2 Receptor Binding Assay ([125I]iodohistidyl-neurokinin A, CHO-hNK-2R membranes); details: for IC50: inhibits fifty percent of binding of [125I]iodohistidyl-neurokinin A to CHO-hNK-2R membranes
T1 construct: expressed in transfected cells; host or cells: CHO-hNK-2R cells (CHO-derived), membrane preparation
T1 sequence (P21452 1-398): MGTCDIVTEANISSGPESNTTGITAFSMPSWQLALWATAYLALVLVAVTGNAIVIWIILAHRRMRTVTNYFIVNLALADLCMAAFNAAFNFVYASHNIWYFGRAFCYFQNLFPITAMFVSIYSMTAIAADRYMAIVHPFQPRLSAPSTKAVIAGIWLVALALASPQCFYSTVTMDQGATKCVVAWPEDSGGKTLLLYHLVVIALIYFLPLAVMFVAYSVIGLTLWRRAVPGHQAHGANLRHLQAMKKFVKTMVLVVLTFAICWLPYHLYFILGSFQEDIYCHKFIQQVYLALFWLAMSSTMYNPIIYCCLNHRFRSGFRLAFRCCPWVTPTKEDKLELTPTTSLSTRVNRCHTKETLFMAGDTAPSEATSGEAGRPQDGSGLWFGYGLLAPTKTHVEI
Experimental: The biological activity of the compounds of the present invention was evaluated employing an initial screening assay which rapidly and accurately measured the binding of the tested compound to known NK-1 and NK-2 receptor sites. Assays useful for evaluating tachykinin receptor antagonists are well known in the art. See. e.g., J. Jukic, et al., Life Sciences, 49:1463-1469 (1991); N. Kucharczyk, et al., Journal of Medicinal Chemistry, 36:1654-1661 (1993); N. Rouissi, et al., Biochemical and Biophysical Research Communications, 176:894-901 (1991).
NK-2 Receptor Binding Assay
The CHO-hNK-2R cells, a CHO-derived cell line transformed with the human NK-2 receptor, expressing about 400,000 such receptors per cell, were grown in 75 cm^2 flasks or roller bottles in minimal essential medium (alpha modification) with 10% fetal bovine serum. The gene sequence of the human NK-2 receptor is given in N. P. Gerard, et al., Journal of Biological Chemistry, 265:20455-20462 (1990).
For preparation of membranes, 30 confluent roller bottle cultures were dissociated by washing each roller bottle with 10 ml of Dulbecco's phosphate buffered saline (PBS) without calcium and magnesium, followed by addition of 10 ml of enzyme-free cell dissociation solution (PBS-based, from Specialty Media, Inc.). After an additional 15 minutes, the dissociated cells were pooled and centrifuged at 1,000 RPM for 10 minutes in a clinical centrifuge. Membranes were prepared by homogenization of the cell pellets in 300 ml 50 mM Tris buffer, pH 7.4 with a Tekma® homogenizer for 10-15 seconds, followed by centrifugation at 12,000 RPM (20,000×g) for 30 minutes using a Beckman JA-14® rotor. The pellets were washed once using the above procedure. and the final pellets were resuspended in 100-120 ml 50 mM Tris buffer, pH 7.4, and 4 ml aliquots stored frozen at −70° C. The protein concentration of this preparation was 2 mg/ml.
For the receptor binding assay, one 4-ml aliquot of the CHO-hNK-2R membrane preparation was suspended in 40 ml of assay buffer containing 50 mM Tris, pH 7.4, 3 mM manganese chloride, 0.02% bovine serum albumin (BSA) and 4 μg/ml chymostatin. A 200 μl volume of the homogenate (40 μg protein) was used per sample. The radioactive ligand was [^125I]iodohistidyl-neurokinin A (New England Nuclear, NEX-252), 2200 Ci/mmol. The ligand was prepared in assay buffer at 20 nCi per 100 μl; the final concentration in the assay was 20 pM. Non-specific binding was determined using 1 μM eledoisin. Ten concentrations of eledoisin from 0.1 to 1000 nM were used for a standard concentration-response curve.
All samples and standards were added to the incubation in 10 μl dimethylsulfoxide (DMSO) for screening (single dose) or in 5 μl DMSO for IC50 determinations. The order of additions for incubation was 190 or 195 μl assay buffer, 200 μl homogenate, 10 or 5 μl sample in DMSO, 100 μl radioactive ligand. The samples were incubated 1 hr at room temperature and then filtered on a 48 well Brandel cell harvester through GF/B filters which had been presoaked for two hours in 50 mM Tris buffer, pH 7.7, containing 0.5% BSA. The filter was washed 3 times with approximately 3 ml of cold 50 mm Tris buffer, pH 7.7. The filter circles were then punched into 12×75 mm polystyrene tubes and counted in a gamma counter.

[2] = molecular target: T2, NK-1 receptor (Homo sapiens, UniProt P25103); experiment: NK-1 Receptor Binding Assay (125I-labeled substance P, IM9 cells); details: for IC50: inhibits fifty percent of binding of 125I-substance P to IM9 cells
T2 construct: endogenous in cells; host or cells: IM9 cells (human cell line), whole cells
T2 sequence (P25103 whole entry): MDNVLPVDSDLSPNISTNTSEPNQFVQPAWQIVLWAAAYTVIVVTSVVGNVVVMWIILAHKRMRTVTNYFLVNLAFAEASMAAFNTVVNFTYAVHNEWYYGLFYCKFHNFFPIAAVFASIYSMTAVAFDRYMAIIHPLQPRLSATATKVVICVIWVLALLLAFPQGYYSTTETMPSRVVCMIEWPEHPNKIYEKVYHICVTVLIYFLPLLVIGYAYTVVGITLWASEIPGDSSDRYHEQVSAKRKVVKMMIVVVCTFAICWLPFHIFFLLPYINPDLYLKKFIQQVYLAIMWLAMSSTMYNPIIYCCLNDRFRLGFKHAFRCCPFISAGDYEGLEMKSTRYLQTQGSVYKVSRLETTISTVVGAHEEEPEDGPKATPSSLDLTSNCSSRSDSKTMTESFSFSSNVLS
Experimental: The biological activity of the compounds of the present invention was evaluated employing an initial screening assay which rapidly and accurately measured the binding of the tested compound to known NK-1 and NK-2 receptor sites. Assays useful for evaluating tachykinin receptor antagonists are well known in the art.
NK-1 Receptor Binding Assay
Radioreceptor binding assays were performed using a derivative of a previously published protocol.
The IM9 cell line is a well-characterized and readily available human cell line.
The reaction was terminated by filtration through a glass fiber filter harvesting system using filters previously soaked for 20 minutes in 0.1% polyethylenimine. Specific binding of labeled substance P was determined in the presence of 20 nM unlabeled ligand.

In the case of COc1ccccc1CNCC(CC1CNc2ccccc21)NC(=O)CN1CCN(c2ccccc2)CC1 (mixture of isomers) [Example 137], the IC50 [1] is reported as 2700 nM and the IC50 [2] is reported as 220 nM.

In the case of COc1ccccc1CN(CC(CC1CNc2ccccc21)NC(=O)CN1CCN(c2ccccc2)CC1)C(C)=O (mixture of isomers) [Example 144], the IC50 [1] is reported as 1200 nM and the IC50 [2] is reported as 52 nM.

COc1ccccc1CN(CC(CC1CN(C(C)=O)c2ccccc21)NC(=O)CN1CCN(c2ccccc2)CC1)C(C)=O (mixture of isomers) [Example 145] gave an IC50 [1] of 1900 nM and an IC50 [2] of 76 nM.

With COc1ccccc1CN(CC(Cc1c[nH]c2ccccc12)NC(=O)CN1CCN(c2ccccc2)CC1)C(C)=O (racemic) [Example 17] the IC50 [1] was 1600 nM.

CC(=O)N(Cc1ccccc1Cl)CC(Cc1c[nH]c2ccccc12)NC(=O)CN1CCC(N2CCCCC2)CC1 (racemic) [Example 47] showed an IC50 [1] of 1800 nM and an IC50 [2] of 0.25 nM.

COc1ccccc1CN(CC(Cc1c[nH]c2ccccc12)NC(=O)CN1CCC(N2CCCCC2)CC1)C(C)=O (racemic) [Example 50] gave an IC50 [1] of 3400 nM.

In the case of COc1ccccc1CN(CC(Cc1c[nH]c2ccccc12)NC(=O)CCc1ccccc1)C(C)=O (racemic) [Example 89], the IC50 [1] is reported as 1200 nM and the IC50 [2] is reported as 170 nM.

In the case of COc1ccccc1CN(CC(Cc1c[nH]c2ccccc12)NC(=O)CCC(=O)c1ccccc1)C(C)=O (racemic) [Example 95], the IC50 [1] is reported as 1000 nM and the IC50 [2] is reported as 9.6 nM.

O=C(CN1CCN(c2ccccc2)CC1)NC(CNCc1ccccc1)Cc1c[nH]c2ccccc12 (stereo not drawn) [Example 1] showed an IC50 [1] of 1700 nM and an IC50 [2] of 53 nM.

Work on COc1ccccc1CNCC(Cc1c[nH]c2ccccc12)NC(=O)CN1CCN(c2ccccc2)CC1 (stereo not drawn) [Example 4] yielded an IC50 [1] of 1500 nM and an IC50 [2] of 40 nM.

Molecule CCN(Cc1ccccc1OC)CC(Cc1c[nH]c2ccccc12)NC(=O)CN1CCN(c2ccccc2)CC1 (stereo not drawn) [Example 9] has an IC50 [1] of 640 nM and an IC50 [2] of 84 nM.

Work on COC(=O)CN(Cc1ccccc1OC)CC(Cc1c[nH]c2ccccc12)NC(=O)CN1CCN(c2ccccc2)CC1 (stereo not drawn) [Example 10] yielded an IC50 [1] of 820 nM and an IC50 [2] of 19 nM.

COc1ccccc1CN(CC(=O)O)CC(Cc1c[nH]c2ccccc12)NC(=O)CN1CCN(c2ccccc2)CC1 (stereo not drawn) [Example 11] showed an IC50 [1] of 2400 nM and an IC50 [2] of 65 nM.

In the case of CC(=O)N(Cc1ccccc1)CC(Cc1c[nH]c2ccccc12)NC(=O)CN1CCN(c2ccccc2)CC1 (stereo not drawn) [Example 12], the IC50 [1] is reported as 1600 nM and the IC50 [2] is reported as 1.6 nM.

For CC(=O)N(Cc1ccccc1C)CC(Cc1c[nH]c2ccccc12)NC(=O)CN1CCN(c2ccccc2)CC1 (stereo not drawn) [Example 14], the IC50 [1] was 1000 nM and the IC50 [2] was 3.1 nM.

CC(=O)N(Cc1ccccc1[N+](=O)[O-])CC(Cc1c[nH]c2ccccc12)NC(=O)CN1CCN(c2ccccc2)CC1 (stereo not drawn) [Example 16] was tested, and the IC50 [1] was 1200 nM and the IC50 [2] was 4.2 nM.

Molecule CC(=O)N(Cc1cccc(F)c1)CC(Cc1c[nH]c2ccccc12)NC(=O)CN1CCN(c2ccccc2)CC1 (stereo not drawn) [Example 20] has an IC50 [1] of 870 nM and an IC50 [2] of 6 nM.

In the case of COc1cccc(CN(CC(Cc2c[nH]c3ccccc23)NC(=O)CN2CCN(c3ccccc3)CC2)C(C)=O)c1 (stereo not drawn) [Example 21], the IC50 [1] is reported as 1200 nM and the IC50 [2] is reported as 4.6 nM.

Work on COc1ccc(CN(CC(Cc2c[nH]c3ccccc23)NC(=O)CN2CCN(c3ccccc3)CC2)C(C)=O)cc1 (stereo not drawn) [Example 22] yielded an IC50 [1] of 3300 nM and an IC50 [2] of 2.1 nM.

Work on CSc1ccc(CN(CC(Cc2c[nH]c3ccccc23)NC(=O)CN2CCN(c3ccccc3)CC2)C(C)=O)cc1 (stereo not drawn) [Example 23] yielded an IC50 [1] of 810 nM and an IC50 [2] of 13 nM.

For COc1ccccc1CN(C=O)CC(Cc1c[nH]c2ccccc12)NC(=O)CN1CCN(c2ccccc2)CC1 (stereo not drawn) [Example 24], the IC50 [1] was 640 nM and the IC50 [2] was 1.2 nM.

Work on CCC(=O)N(Cc1ccccc1OC)CC(Cc1c[nH]c2ccccc12)NC(=O)CN1CCN(c2ccccc2)CC1 (stereo not drawn) [Example 26] yielded an IC50 [1] of 650 nM and an IC50 [2] of 0.75 nM.

With COc1ccccc1CN(CC(Cc1c[nH]c2ccccc12)NC(=O)CN1CCN(c2ccccc2)CC1)C(=O)c1ccccc1 (stereo not drawn) [Example 27] the IC50 [1] was 710 nM and the IC50 [2] was 1.6 nM.

With CCOC(=O)N(Cc1ccccc1OC)CC(Cc1c[nH]c2ccccc12)NC(=O)CN1CCN(c2ccccc2)CC1 (stereo not drawn) [Example 28, 1-[N-ethoxycarbonyl-N-(2-methoxybenzyl)amino]-3-(1H-indol-3-yl)-2-[N-(2-((4-phenyl)piperazin-1-yl)acetyl)amino]propane] the IC50 [1] was 1000 nM and the IC50 [2] was 1.7 nM.

COc1ccccc1CNCC(Cc1c[nH]c2ccc(OCc3ccccc3)cc12)NC(=O)CN1CCC(N2CCCCC2)CC1 (stereo not drawn) [Example 122] was tested, and the IC50 [2] was 550 nM.

In the case of COc1ccccc1CN(CC(Cc1c[nH]c2c(C)cccc12)NC(=O)CN1CCC(N2CCCCC2)CC1)C(C)=O (stereo not drawn) [Example 128], the IC50 [2] is reported as 1.1 nM.

In the case of COc1ccccc1CN(CC(Cc1c[nH]c2ccc(Br)cc12)NC(=O)CN1CCC(N2CCCCC2)CC1)C(C)=O (stereo not drawn) [Example 129], the IC50 [2] is reported as 8.5 nM.

Work on COc1ccc2[nH]cc(CC(CN(Cc3ccccc3OC)C(C)=O)NC(=O)CN3CCC(N4CCCCC4)CC3)c2c1 (stereo not drawn) [Example 130] yielded an IC50 [2] of 19 nM.

For COc1ccccc1CN(CC(Cc1c[nH]c2ccc(OCc3ccccc3)cc12)NC(=O)CN1CCC(N2CCCCC2)CC1)C(C)=O (stereo not drawn) [Example 131], the IC50 [2] was 67 nM.

In the case of COc1ccccc1CN(CC(Cc1c[nH]c2cc(F)ccc12)NC(=O)CN1CCC(N2CCCCC2)CC1)C(C)=O (stereo not drawn) [Example 131a], the IC50 [2] is reported as 0.7 nM.

Work on COc1ccccc1CN(CC(C)(Cc1c[nH]c2ccccc12)NC(=O)CN1CCC(N2CCCCC2)CC1)C(C)=O (stereo not drawn) [Example 132] yielded an IC50 [2] of 4.2 nM.

COc1ccccc1CN(CC(C)(Cc1c[nH]c2ccccc12)NC(=O)CN1CCN(c2ccccc2)CC1)C(C)=O (stereo not drawn) [Example 133] showed an IC50 [2] of 11.6 nM.

For COc1ccccc1CN(CC(C)(Cc1c[nH]c2ccccc12)NC(=O)CBr)C(=O)OC(C)(C)C (stereo not drawn) [Example 134], the “NK-1 percent inhibition of binding” value ([2]; @ 1 μM) was 14% @.

COc1ccccc1CN(CC(Cc1csc2ccccc12)NC(=O)CN1CCN(c2ccccc2)CC1)C(C)=O (stereo not drawn) [Example 143] showed an IC50 [2] of 7.9 nM.

COc1ccccc1CN(CC(Cc1csc2ccccc12)NC(=O)CN1CCC(N2CCCCC2)CC1)C(C)=O (stereo not drawn) [Example 149] was tested, and the IC50 [2] was 1.2 nM.

NCC(Cc1c[nH]c2ccccc12)NC(=O)CN1CCN(c2ccccc2)CC1 (stereo not drawn) [Example 150, 1-amino-3-(1H-indol-3-yl)-2-[N-(2-((4-phenyl)piperazin-1-yl)acetyl)amino]propane] was tested, and the inhibition at 1 µM ([2]; @ 1 μM, read-out: NK-1 percent inhibition of binding) was 45%.

For O=C(NCC(Cc1ccccc1)NC(=O)c1ccccc1)c1ccccc1 (stereo not drawn) [Example 163], the “NK-2 percent inhibition of binding” value ([1]; @ 10 μM) was 44% @.

With NCC(NC(c1ccccc1)(c1ccccc1)c1ccccc1)c1ccc(Cl)c(Cl)c1 (stereo not drawn) [Example 172] the “NK-1 percent inhibition of binding” value ([2]; @ 5 μM) was 46% @.
